Laboratory results reported in publication PMC7934871 (JCI Insight, 2021).
No end group written: not given here.

Key:
[1] = tested on: cancer cells; experiment: Confocal microscopy of peptide localisation; type: cell-based; details: 1 μM, 1 hour
Method: (§1) Figure 8 PS-Gp130 and PS-MYC blocking peptides efficiently internalize into tumor cells to exert their functions. (A) For 1 hour 1 μM of PS-conjugated MYC (PS-MYC) and Gp130 (PS-Gp130) were incubated with cancer cells. PS-scramble MYC (PS-SC-MYC) was used as a control for PS-MYC. The peptide uptake was visualized by confocal microscopy and quantified by flow cytometry. Data are representative of 3 independent experiments (n = 3). (B) Upper panel: The binding of PS-Gp130 and STAT3 was examined by immunoprecipitation and Western blotting. PO-Gp130 was used as a control. For 4 hours prior to harvest, 1 μM of peptide was incubated with cells. Lower panel: PS-Gp130 inhibits IL-6–induced phosphorylation of STAT3 and p44/42 but not EGF-mediated signaling. The cells were preincubated with PS-Gp130 for 2 hours and then stimulated with 20 ng/mL of IL-6 or 30 ng/mL of EGF for 30 minutes before harvest and Western blotting. (C) Gene expression of STAT3 targets was examined by quantitative PCR after the treatment with 1 μM of PS-Gp130 with or without IL-6 stimulation as described above. Data shown are 3 independent experiments (n = 3); SD is shown. Unpaired Student’s t test; ***P < 0.005; **P < 0.01; *P < 0.05. (D) A total of 1 μM of PS-SC-MYC or PS-MYC was incubated with cells for 48 hours before the gene expression of MYC targets was examined by quantitative PCR. […]

[2] = tested on: MYC target genes; experiment: Gene expression of MYC targets by quantitative PCR; type: cell-based; details: 1 μM, 48 hours, n = 3
Method: as §1, with “Lower panel: PS-Gp130 inhibits IL-6–induced phosphorylation of STAT3 and p44/42 but not EGF-mediated signaling. The cells were preincubated with PS-Gp130 for 2 hours and then stimulated with 20 ng/mL of IL-6 or 30 ng/mL of EGF for 30 minutes before harvest and Western blotting.” left out, “Data shown are 3 independent experiments (n = 3); SD is shown. Unpaired Student’s t test; ***P < 0.005; **P < 0.01; *P < 0.05.” left out
Total RNA was extracted from cultured or tumor tissues using RNeasy kit (QIAGEN), according to manufacturer’s instruction. After cDNA synthesis using iScript cDNA Synthesis kit (Bio-Rad), samples were analyzed using pairs of primers specific for CASP9, CASP3, CASP8, BIRC5, BCL2L1, MYC, TP53, VEGF, IL1B, SERPIN3, FGA, CDK4, CCND2, CDKN2A, CDKN2B, GADD45A, mCD274, mMmp9, and mBirc5, as indicated. […]

[3] = mouse, in vivo
Method: Supplemental Figure 10 (related to Figure 3). The systemic toxicity of PS-acet.-peptide.
The bodyweight (A), blood count (B) and organ morphology (H&E staining; spleen, kidney and liver) (C) of the mice (n=3) treated with HBSS (1), PS-oligo (2), naïve peptide (3), PO-peptide (4) or PS-peptide (5) every other day at 1 mg/kg (per treatment) for 3 weeks.
Individual value of each mouse is shown as a dot on the graph. The red lines on each graph in (B) indicate the normal ranges. Blood count was done by a veterinary hematology analyzer. The images shown in (C) are the represented H&E section from three mice (n=3). Enlarged view are shown below as indicated. Scale bar, 50 µm.
Aftabizadeh and Li et al., Figure S10
Supplemental Figure 12 (related to Figure 6).
(A) Amino acid sequences of phosphorothioated (*, PS) DNA oligonucleotide-modified Gp130 (PS-Gp130), MYC (PS-MYC) and scrambled MYC (PS-SC-MYC) peptides. PS-Gp130 peptide spans 9 amino acids of Gp130 protein (amino acids […]). PS-MYC peptide contains 9 amino acids of Max protein (amino acids 77-85).
(B and C) The bodyweight (B, n=5) and blood count (C, n=3) of the mice in each treatment group was measured at the end point. Individual value of each mouse is shown as a dot on the graph. The red lines on each graph indicate the normal ranges.
Aftabizadeh and Li et al., Figure S12

PS-MYC: PS-conjugated peptide corresponding to leucine zipper segment of MAX (amino acids 77–85) (KNHTHQQDI; also: phosphorothioate oligonucleotide conjugate; UniProt P61244 77-85, looked up, fragment)
intracellular localisation / retention of peptide [1]: retained in the nucleus | expression of MYC-mediated cell cycle and survival genes [2]: markedly downregulated | expression of MYC-suppressed target genes [2]: upregulating | blood count (anemia) [3]: minor anemia
